The results in this text go back to ChEMBL document CHEMBL1201862, “PubChem BioAssay data set” (2004).

Some test systems named below: OVCAR-8; RXF 393; SK-MEL-28; Hs-578T; 786-0; CCRF-CEM; MDA-N; KM12; A498; HCT-15; SR; NCI-H23; MOLT-4; COLO 205; U-251; SW-620; UACC-62; SF-539; SK-OV-3.
Assay in all cases: inhibition of tumour cell growth, NCI panel, 48 h

Each structure is given as a SMILES string.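 All cell lines were grown in 96-well plates and treated with compound for 48 hours. GI50: concentration for 50% inhibition of growth.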 The source made the active and inactive calls. Cut-off read from the data, not from the text of the source: active = GI50 up to about 1.1 µM and inactive = higher.

As for `CCOC(=O)c1cc(-c2ccn(C(C)=O)c2)c(-c2cc(C)co2)[nH]1`, the GI50 with OVCAR-8, with RXF 393, in the assay on SK-MEL-28, in the assay with Hs-578T, in the assay with 786-0 and in the assay on CCRF-CEM was > 100 µM (inactive) in each case. Moreover, the GI50 in the assay with MDA-N was > 100 µM (inactive); with KM12 it was > 100 µM (inactive); with A498, > 100 µM (inactive); in the assay on HCT-15, above 100 µM; with SR it was > 100 µM (inactive); with NCI-H23 it was > 100 µM (inactive). Further, the GI50 in the assay on MOLT-4, in the assay on COLO 205, with U-251, in the assay with SW-620 and in the assay on UACC-62 was > 100 µM (inactive) throughout.

As for `Cc1cn(CCOCCOC(=O)NC(CCCNC(=N)N)C(=O)O)c(=O)[nH]c1=O` (centres undefined), the GI50 with RXF 393, in the assay on SF-539, in the assay on SK-MEL-28, in the assay with Hs-578T, in the assay on 786-0 and in the assay on CCRF-CEM was > 100 µM (inactive) each time. Besides, the GI50 was > 100 µM (inactive) in the assay on MDA-N; > 100 µM (inactive) with KM12; > 100 µM (inactive) in the assay with A498; above 100 µM in the assay with HCT-15; > 100 µM (inactive) with SR; > 100 µM (inactive) in the assay on NCI-H23. Also, the GI50 in the assay on MOLT-4, in the assay on SK-OV-3, with COLO 205, in the assay with U-251, with SW-620 and in the assay with UACC-62 was > 100 µM (inactive) each time.

Turning to `O=C1C(=C(C(=O)c2ccccc2)C(=O)c2ccccc2)OC(c2ccccc2)=C1C(=O)c1ccccc1`, the GI50 with OVCAR-8 is 4.15 µM (inactive); in the assay with RXF 393, 0.122 µM (active); in the assay with SF-539, 5.78 µM (inactive); with SK-MEL-28, 13.9 µM (inactive); in the assay on Hs-578T, 11.5 µM (inactive); in the assay with 786-0 it was 3.51 µM (inactive). In addition, the GI50 was 1.78 µM (inactive) in the assay on CCRF-CEM; 6.47 µM (inactive) with MDA-N; 5.5 µM (inactive) in the assay on KM12; 15.6 µM (inactive) in the assay with A498; 3.36 µM with HCT-15; 2.28 µM (inactive) in the assay with SR. For the same molecule, the GI50 is 6.1 µM (inactive) with NCI-H23; 1.98 µM (inactive) in the assay with MOLT-4; 6.93 µM (inactive) with SK-OV-3; 12.8 µM (inactive) in the assay on COLO 205; 4.46 µM (inactive) in the assay on U-251; 4.33 µM (inactive) in the assay on UACC-62.

Turning to `c1cc(-c2cscc2-c2ccsc2)cs1`, the GI50 with RXF 393 was 28.4 µM (inactive); in the assay on SF-539, 17.8 µM (inactive); in the assay with SK-MEL-28 it was 98.4 µM (inactive); with Hs-578T, 17.4 µM (inactive); with 786-0, 72.1 µM (inactive); in the assay on CCRF-CEM, 52.6 µM (inactive). In addition, the GI50 in the assay with MDA-N was 40.2 µM (inactive); with KM12 it was 14.8 µM (inactive); with A498 it was > 100 µM (inactive); with HCT-15 it was 29.4 µM; in the assay on SR it was 27.5 µM (inactive); with NCI-H23, 25.7 µM (inactive). For the same molecule, the GI50 with MOLT-4 was 30.1 µM (inactive); with SK-OV-3, > 100 µM (inactive); with COLO 205, > 100 µM (inactive); in the assay on U-251 it was > 100 µM (inactive); in the assay on SW-620 it was 57.9 µM (inactive); with UACC-62, 47.3 µM (inactive).

For `CCOP(=O)(C=C=C1CCC2[C@@H]3CCc4cc(OC)ccc4C3CC[C@]12C)OCC` (some centres undefined), the GI50 was 11 µM (inactive) with OVCAR-8; 1.98 µM (inactive) in the assay with RXF 393; 14.9 µM (inactive) in the assay on SF-539; 10.6 µM (inactive) in the assay with SK-MEL-28; 20.5 µM (inactive) in the assay with Hs-578T; 12.3 µM (inactive) with 786-0. Moreover, the GI50 in the assay with MDA-N was 12.3 µM (inactive); in the assay on KM12 it was 12.4 µM (inactive); in the assay on A498, 12 µM (inactive); in the assay on HCT-15, 10.9 µM; in the assay with SR, 1 µM (active); with NCI-H23, 5.73 µM (inactive). In addition, the GI50 is 16.7 µM (inactive) with SK-OV-3; 10.5 µM (inactive) in the assay with COLO 205; 11 µM (inactive) with U-251; 12 µM (inactive) with SW-620; 3.89 µM (inactive) in the assay with UACC-62.

For the molecule `COC(=O)/C(C#N)=C(\Nc1ccccc1)N1CCOCC1`, the GI50 in the assay on OVCAR-8, with RXF 393, with SF-539, in the assay on SK-MEL-28, in the assay on Hs-578T and in the assay on 786-0 was > 100 µM (inactive) throughout. Also, the GI50 with MDA-N is > 100 µM (inactive); in the assay on A498, > 100 µM (inactive); with HCT-15 it was above 100 µM; in the assay with SR it was > 100 µM (inactive); with NCI-H23 it was > 100 µM (inactive); in the assay on MOLT-4, > 100 µM (inactive). Further, the GI50 in the assay with SK-OV-3, in the assay on COLO 205, in the assay on U-251 and with SW-620 was > 100 µM (inactive) throughout.

As for `CCCC(CC)c1c(O)c(O)c(C(CC)CCC)c(C(CC)CCC)c1C(CC)CCC` (centres undefined), the GI50 in the assay on OVCAR-8, in the assay with RXF 393, with SF-539, with SK-MEL-28, in the assay with Hs-578T and in the assay with 786-0 was > 10 µM (inactive) throughout. Also, the GI50 in the assay on CCRF-CEM was > 10 µM (inactive); in the assay on MDA-N, > 10 µM (inactive); in the assay on KM12 it was > 10 µM (inactive); in the assay with A498, > 10 µM (inactive); in the assay on HCT-15, above 10 µM; in the assay with SR, > 10 µM (inactive). Besides, the GI50 in the assay on NCI-H23, with SK-OV-3, in the assay on COLO 205, in the assay with U-251, in the assay with SW-620 and in the assay with UACC-62 was > 10 µM (inactive) in each case.

With `O=C(O)c1cc2ccccc2oc1=O` [COUMARIN-3-CARBOXYLIC ACID], the GI50 in the assay on OVCAR-8, with RXF 393, in the assay on SF-539, with SK-MEL-28, with Hs-578T and with 786-0 was > 100 µM (inactive) throughout. The GI50 was > 100 µM (inactive) in the assay with CCRF-CEM; > 100 µM (inactive) in the assay on MDA-N; > 100 µM (inactive) with KM12; > 100 µM (inactive) with A498; above 100 µM in the assay on HCT-15; > 100 µM (inactive) with SR. In addition, the GI50 in the assay on NCI-H23, with MOLT-4, with COLO 205, with U-251, in the assay on SW-620 and with UACC-62 was > 100 µM (inactive) in each case.

For `O=CC1C[C@@H](N2C(=O)O[C@@H](c3ccccc3)[C@H]2c2ccccc2)[C@@H]1COCc1ccccc1` (some centres undefined), the GI50 was 21.2 µM (inactive) in the assay on OVCAR-8; 18.7 µM (inactive) with RXF 393; 18.7 µM (inactive) in the assay with SF-539; 20 µM (inactive) in the assay with SK-MEL-28; 25.6 µM (inactive) with Hs-578T; 14.3 µM (inactive) in the assay with 786-0. Moreover, the GI50 was 15 µM (inactive) in the assay with MDA-N; 43.5 µM (inactive) in the assay on KM12; 20.9 µM (inactive) in the assay with A498; 18 µM with HCT-15; 10.3 µM (inactive) in the assay with SR; 17.6 µM (inactive) in the assay with NCI-H23. Moreover, the GI50 was 6.04 µM (inactive) in the assay on MOLT-4; 19.9 µM (inactive) with COLO 205; 16.6 µM (inactive) in the assay with U-251; 21.5 µM (inactive) with SW-620; 16.8 µM (inactive) in the assay on UACC-62.

As to `Cc1cc(S(=O)(=O)Nc2n[nH]c(-c3ccc(Cl)cn3)n2)c(S)cc1Cl`, the GI50 was 48.8 µM (inactive) in the assay with OVCAR-8; 27.1 µM (inactive) in the assay with RXF 393; 44.1 µM (inactive) in the assay on SF-539; > 100 µM (inactive) in the assay on SK-MEL-28; 27.9 µM (inactive) with Hs-578T; 47.6 µM (inactive) with 786-0. The GI50 with MDA-N is 63.4 µM (inactive); with KM12 it was 36.3 µM (inactive); in the assay on A498, 87.3 µM (inactive); in the assay on HCT-15 it was 70.1 µM; in the assay on SR, 47.8 µM (inactive); in the assay on MOLT-4, 40.6 µM (inactive). In addition, the GI50 in the assay with SK-OV-3 was 88.3 µM (inactive); with COLO 205 it was > 100 µM (inactive); in the assay with U-251, 39 µM (inactive); with SW-620 it was 83.6 µM (inactive); in the assay with UACC-62, 48.6 µM (inactive).

With `N#Cc1c(N)oc(-c2ccc([N+](=O)[O-])cc2)c1C#N`, the GI50 is 20.5 µM (inactive) with OVCAR-8; 28.6 µM (inactive) in the assay with RXF 393; 19.8 µM (inactive) with SF-539; 44.2 µM (inactive) in the assay with SK-MEL-28; 25.6 µM (inactive) with Hs-578T; 30.1 µM (inactive) with 786-0. Besides, the GI50 with CCRF-CEM was 67.5 µM (inactive); in the assay on MDA-N it was 30.3 µM (inactive); in the assay on KM12, 72.6 µM (inactive); with A498, 22.1 µM (inactive); in the assay on HCT-15 it was 23.4 µM; in the assay with SR, 54.2 µM (inactive). Besides, the GI50 in the assay on NCI-H23 is 23.8 µM (inactive); with SK-OV-3, 45.2 µM (inactive); in the assay on COLO 205, 43.9 µM (inactive); in the assay with U-251, 39.4 µM (inactive); with SW-620 it was 58.3 µM (inactive); with UACC-62, 39.5 µM (inactive).

For the molecule `C/C(=N\Nc1nc2ccccc2n1C)c1ccc2ccccc2n1`, the GI50 with RXF 393 was 5.2 µM (inactive); with SF-539, 4.53 µM (inactive); in the assay on SK-MEL-28 it was 5.09 µM (inactive); in the assay on Hs-578T it was 15.4 µM (inactive); with 786-0, 1.99 µM (inactive); with CCRF-CEM, 0.244 µM (active). Besides, the GI50 with MDA-N was 5.04 µM (inactive); in the assay on KM12, 0.528 µM (active); in the assay on A498, 3.69 µM (inactive); in the assay with SR, 0.51 µM (active); in the assay with NCI-H23 it was 4.41 µM (inactive); in the assay on MOLT-4, 0.414 µM (active). In addition, the GI50 in the assay on SK-OV-3 is 12 µM (inactive); with COLO 205, 0.228 µM (active); in the assay with U-251, 2 µM (inactive); with SW-620, 0.35 µM (active); in the assay on UACC-62 it was 2.32 µM (inactive).
